Source: US20240352309A1, “FLUORESCENT DYE, AND PREPARATION METHOD THEREFOR AND USE THEREOF” (FLUORESCENCE DIAGNOSIS (SHANGHAI) BIOTECH COMPANY LTD., priority 2021, published 2024)

Key:
[1] = Fluorescence emission in glycerol and methanol (Test Example 1); format: physicochemical; details: for Fluorescence intensity ratio in glycerol and methanol: 1×10^−5 M in glycerol vs methanol, maximum excitation wavelength; for Emission wavelength: 1×10^−5 M, excited at maximum excitation wavelength of each dye
Experimental: The fluorescent dye (molecular rotors) prepared in Examples dye1-dye42 were dissolved in DMSO each to prepare a mother solution with a concentration of 1×10^−2 M, and each mother solution was added to glycerol and methanol respectively and was mixed well, and a solution with a final concentration of 1×10^−5 M was prepared.

[2] = Background fluorescence in PBS (Test Example 4); format: physicochemical; details: 1×10^−5 M, relative to contrast dyes of the same group (dye48, dye49, dye50, dye47)
Experimental: The dye1 and dye48; dye22 and dye49; dye40 and dye50; dye9, dye10 and dye47 were added to PBS to prepare a solution with a final concentration of 1×10^−5 M, corresponding maximum excitation wavelengths were used for exciting the dyes so that their fluorescence intensities in PBS could be detected, and normalization was performed with the strongest fluorescence intensity in each group of samples as 100, as shown respectively in FIGS. 21, 22, 23 and 24.

[3] = test system: RNA aptamer in stable cell line (293T/17); test: Confocal imaging of cells expressing RNA aptamer (Test Example 5); format: cell-based; details: 2 uM dye, 10 min incubation, confocal microscopy; cells not expressing aptamers do not fluoresce
Experimental: Stable cell line (293T/17) continuously expressing RNA aptamer ([…]) and control cells (293T/17) were used, and cell culture media of dye1, dye12, dye25, and dye41 with a final concentration of 2 uM substituted original cell culture media after the cell line and control cells grew to a cell confluence of 90% under the conventional mammalian cell culture condition (37° C., 5% carbon dioxide, 100% relative humidity), and were incubated for 10 min (37° C., 5% carbon dioxide, 100% relative humidity).

[4] = test system: RNA aptamer in stable cell line (293T/17); test: Flow detection of cells expressing RNA aptamer (Test Example 6); format: cell-based; details: 1 μM dye in PBS, 5 minutes
[5] = Emission spectra in glycerol, wavelength adjustment (Test Example 3); format: physicochemical; details: 1×10^−5 M, dye6 vs dye5, oxo-carbonyl turned into thiocarbonyl
Experimental: The dye5, dye6, dye11, dye12, dye13, dye14, dye39 and dye42 were added into glycerol to prepare a solution with a final concentration of 1×10^−5 M, fluorescent dyes were excited with corresponding maximum excitation wavelength so as to obtain the emission spectra, and some of the emission spectra were normalized.

[6] = Fluorescence emission in glycerol-diethanol mixed solutions of different viscosities (Test Example 2); format: physicochemical; details: glycerol-diethanol mixed solution, 16.4-946.0 cp, 1×10^−5 M
From the text: The dye7, dye9, dye12, dye25, dye40 were respectively added into a glycerol-diethanol mixed solution with the following viscosities: 16.4 cp (the volume ratio of glycerol was 0%), 29.8 cp (the volume ratio of glycerol was 20%), 64.5 cp (the volume ratio of glycerol was 40%), 143.5 cp (the volume ratio of glycerol was 60%), 377.0 cp (the volume ratio of glycerol was 80%), 946.0 cp (the volume ratio of glycerol was 100%), so as to prepare solutions with a final concentration of 1×10^−5 M; the fluorescence emission spectra under different viscosity conditions were shown as FIGS. 1, 3, 5, 7 and 9, wherein the emission wavelengths of the above-mentioned molecular rotors were respectively 620 nm, 576 nm, 650 nm, 670 nm and 720 nm. According to the results, fluorescence intensities of fluorescent dyes of the same concentration increase with ambient viscosity.

[7] = Fluorescence in solvents with different polarities (Test Example 2); format: physicochemical; details: methylbenzene, ethyl acetate, methyl alcohol, acetonitrile, dimethyl sulfoxide

SMILES	Fluorescence intensity ratio in glycerol and methanol [1]	Emission wavelength [1]	further results
CN1C(=O)S/C(=C\c2ccc(N(C)CCO)s2)C1=O [dye1]	695	520 nm	background fluorescence in PBS [2]: lower background fluorescence; fluorescence of cells expressing aptamers [3]: bright fluorescence
CCN1C(=O)/C(=C/c2ncc(N(C)CCO)s2)SC1=S [dye2]	587	532 nm	–
CN1CCOc2cc(/C=C3\NC(=S)NC3=O)ccc21 [dye3]	637	580 nm	dye background fluorescence before binding [4]: very low; fluorescence after binding to RNA aptamer in cells [4]: notably activated
CN1CCOc2cc(/C=C3\SC(=O)NC3=S)ccc21 [dye4]	984	620 nm	–
CN1CCSc2cc(/C=C3\SC(=O)NC3=O)ccc21 [dye5]	1021	550 nm	–
CN1CCSc2cc(/C=C3\SC(=S)NC3=O)ccc21 [dye6]	658	608 nm	increase of emission wavelength [5]: about 50 nm
CC1=CC(C)(C)N(C)c2ccc(/C=C3\SC(=O)NC3=S)cc21 [dye7]	754	620 nm	Emission wavelength [6]: 620 nm; viscosity response of fluorescence intensity [6]: sensitive to viscosity; fluorescence intensity in solvents with different polarities [7]: weak
O=C1NC(=S)N/C1=C\c1cc2c3c(c1)CCCN3CCC2 [dye9]	951	586 nm	Emission wavelength [6]: 576 nm; viscosity response of fluorescence intensity [6]: sensitive to viscosity; fluorescence intensity in solvents with different polarities [7]: weak; background fluorescence in PBS [2]: lower background fluorescence
S=C1NC(=S)/C(=C/c2cc3c4c(c2)CCCN4CCC3)S1 [dye10]	638	675 nm	background fluorescence in PBS [2]: lower background fluorescence
CN(CCO)c1cc2sc(/C=C3\SC(=O)NC3=O)cc2s1 [dye11]	954	590 nm	–
CN(CCO)c1cc2sc(/C=C3\SC(=S)NC3=O)cc2s1 [dye12]	654	650 nm	Emission wavelength [6]: 650 nm; viscosity response of fluorescence intensity [6]: sensitive to viscosity; fluorescence intensity in solvents with different polarities [7]: weak; fluorescence of cells expressing aptamers [3]: bright fluorescence
CN(CCO)c1cc2sc(/C=C3\SC(=S)NC3=S)cc2s1 [dye14]	852	720 nm	–
CN1C(=O)/C(=C/c2cc3sc(N(C)CCO)cc3s2)SC1=S [dye15]	891	655 nm	–
CN1C(=S)S/C(=C\c2cc3sc(N(C)CCO)cc3s2)C1=S [dye16]	982	730 nm	–
CN(CCO)c1cc2sc(/C=C3\NC(=S)N(CCC(=O)O)C3=O)cc2s1 [dye17]	993	630 nm	–
CN1C(=O)/C(=C/c2cc3sc(N(C)CCOCCOCCO)cc3s2)SC1=S [dye18]	1026	588 nm	–
CCCCCCCCCCN(C)c1cc2sc(/C=C3\SC(=S)N(C)C3=O)cc2s1 [dye19]	1098	650 nm	–
O=C1NC(=S)S/C1=C\c1cc2sc(N(CCO)CCO)cc2s1 [dye20]	1133	650 nm	–
O=C1NC(=S)N/C1=C\c1cc2sc(N(CCO)CCO)cc2s1 [dye21]	1098	635 nm	dye background fluorescence before binding [4]: very low; fluorescence after binding to RNA aptamer in cells [4]: notably activated
CN(CCO)c1ccc2cc(/C=C3\SC(=S)NC3=O)sc2c1 [dye22]	687	605 nm	background fluorescence in PBS [2]: lower background fluorescence
CN(CCNS(C)(=O)=O)c1ccc2cc(/C=C3\NC(=S)NC3=O)sc2c1 [dye23]	985	640 nm	–

SMILES	Fluorescence intensity ratio in glycerol and methanol [1]	Emission wavelength [1]	further results
CN(C)CCN(C)c1ccc2cc(/C=C3\SC(=O)NC3=O)sc2c1 [dye24]	465	750 nm	–
CN1C(=O)/C(=C/c2ccc3cc(N(C)CCCl)ccc3n2)SC1=S [dye26]	871	660 nm	–
CN(CCO)c1ccc2nc(/C=C3\SC(=S)NC3=O)sc2c1 [dye27]	765	590 nm	–
CCN1C(=O)S/C(=C\c2cc3ccc(N(C)CCO)cc3o2)C1=O [dye28]	682	690 nm	–
CN1C(=O)/C(=C/c2nc3ccc(N(C)CCO)cc3o2)NC1=S [dye29]	721	650 nm	–
CN(C)c1ccc2cc(/C=C3\SC(=S)N(N)C3=O)sc2c1 [dye30]	761	640 nm	–
CN(C)c1ccc2cc(/C=C3\SC(=S)N(CCC(=O)O)C3=S)oc2c1 [dye31]	980	685 nm	–
CN(C)c1ccc2cc(/C=C3\NC(=S)NC3=S)oc2c1 [dye32]	687	654 nm	–
CN(C)c1ccc2nc(/C=C3\SC(=N)NC3=N)oc2c1 [dye33]	461	622 nm	–
CN(CCO)c1ccc2c(c1)C(C)(C)c1cc(/C=C3\SC(=O)NC3=O)ccc1-2 [dye34]	630	680 nm	dye background fluorescence before binding [4]: very low; fluorescence after binding to RNA aptamer in cells [4]: notably activated
CN(CCO)c1ccc2c(c1)C(C)(C)c1cc(/C=C3\SC(=S)NC3=O)ccc1-2 [dye35]	530	740 nm	–
CN(CCO)c1ccc2c(c1)sc1cc(/C=C3\SC(=S)NC3=O)sc12 [dye36]	510	735 nm	–
CN(CCO)c1cc2c(s1)-c1sc(/C=C3\OC(=N)NC3=N)cc1[Si]2(C)C [dye37]	620	720 nm	–
CN(CCO)c1cc2cc3sc(/C=C4\OC(=S)NC4=S)cc3cc2s1 [dye38]	741	730 nm	–
CN(CCO)c1ccc2c(c1)C(C)(C)c1cc(/C=C3\SC(=S)NC3=S)sc1-2 [dye39]	627	820 nm	–
CN1C(=S)N/C(=C\c2cc3c(s2)-c2ccc(N(C)CCO)cc2C3(C)C)C1=S [dye40]	695	730 nm	Emission wavelength [6]: 720 nm; viscosity response of fluorescence intensity [6]: sensitive to viscosity; fluorescence intensity in solvents with different polarities [7]: weak; background fluorescence in PBS [2]: lower background fluorescence
CN(CCO)c1cc2c(s1)-c1sc(/C=C3\NC(=S)NC3=O)cc1C2(C)C [dye41]	594	735 nm	fluorescence of cells expressing aptamers [3]: bright fluorescence
CN(CCO)c1cc2c(s1)-c1sc(/C=C3\SC(=S)NC3=S)cc1C2(C)C [dye42]	364	800 nm	–
CN(CCO)c1ccc2c(c1)C(C)(C)C(/C=C1\SC(=O)NC1=O)=N2 [dye44]	465	680 nm	–
CN(CCO)c1ccc2c(c1)C(C)(C)C(/C=C1\SC(=S)NC1=O)=N2 [dye45]	562	717 nm	–
CN(C)c1ccc(C2=C(C#N)C(=C(C#N)C#N)OC2(C)C)cc1 [dye50, reference compound]	–	–	dye background fluorescence before binding [4]: obvious
